This is an account of results in patent US6166084A, “Compositions for the treatment of chronic wounds” (Johnson & Johnson Medical, Ltd., priority 1996, dated 2000).

For assay [1], the system named is matrix metalloproteinases (MMP) from human wound fluid. Kind of assay: MMP activity by gelatin SDS-PAGE zymography. The assay is classed as biochemical. The settings on record: 18 hours at 37° C., pH 7.8. On the procedure:
The effect of NAC concentration on the activity of matrix metalloproteinases (MMP) from human wound fluid was assessed as follows.
The MMP activity was determined by gelatin SDS polyacrylamide gel electrophoresis (zymography) similar to that described by Heussen C. and Dowdle E. B. in Anal. Biochem. 102:196-202 (1980).
The experimental method was as follows:
1. Gel preparation. The following components were mixed thoroughly:
1. 5 ml 30% acrylamide/bis acrylamide (30 g acrylamide (Sigma A8887) plus 0.8 g N-N'-methylene bis-acrylamide (Sigma M7279) in 100 ml deionised water).
2. 6.05 ml deionised water.
3. 3.75 ml 1.5M Tris-HCl buffer.
4. 150 μl 10% sodium dodecyl sulphate (SDS. Fisons S/5200/53).
5. 1 ml warm (60° C.) gelatin (Sigma G9382) solution (7.5 mgml^-1).
6. Immediately prior to casting the gel 50 μl 10% ammonium persulphate (APS, Fisons A/6160/53) and 12.5 μl tetramethylethylenediamine (TEMED, Sigma T9281).
4.5 ml of the above mixture was added to the electrophoresis apparatus (Dual Mini Slab Kit, Atto Corporation), and covered with propanol saturated water. The gel was left gel to polymerise for at least 45 minutes. Then propanol solution was decanted and added to 1 ml of stacking gel solution (3.15 ml deionised water, 0.75 ml 30% acrylamide/bis-acrylamide, […] 1.5M Tris-HCl, 50 μl 10% SDS, 50 μl ammonium persulphate and 10 μl TEMED). Finally, a sample comb (8 lane comb) was inserted and the gel left to polymerise for at least 45 minutes.
2. Sample preparation: A matrix metalloprotease (MMP) sample (10% solution of human acute wound fluid diluted in MMP proteolysis buffer (see below)) was diluted 1:1 with sample buffer (6.3 ml 0.5M Tris-HCl pH 6.8, 2.5 ml glycerol, 0.5 g SDS, 16.2 ml deionised water and bromophenol blue to colour).
3. Sample loading and electrophoresis: 20 μl of the MMP samples were loaded into 8 lanes of the gel. The MMP's were separated for 1 hour at 20 mA/100V per gel until the dye front was almost at the bottom of the gel. The gel apparatus was then dismantled and the gel removed.
4. Proteolysis: Washed gels for 30 minutes with 100 ml 2.5% Triton X-100. The procedure was repeated three times. The gels were cut into slices consisting of two lanes per slice. The gel slices were incubated in 20 ml proteolysis buffer (50 mM Tris-HCl pH 7.8, 50 mM CaCl2, 0.5M NaCl) containing the following treatments (each treatment was adjusted to pH 7.8) for 18 hours at 37° C.: (1) proteolysis buffer alone; (2) N-acetyl cysteine (44 mM); (3) N-acetyl cysteine (4.4 mM); (4) N-acetyl cysteine (0.44 mM).
5. […]
The area of the individual zones of clearance on the gels, which are due to proteinase activity, were accurately measured by the Optilab (RTM) system. […]

Assay [2] has as its system TNF-α induced CD 54, Intercellular Adhesion Molecule (ICAM-1) expression by Human Umbilical Vein Endothelial Cells (HUVEC). The assay is described as follows: TNF-α induced ICAM-1 expression by HUVEC (ELISA). The assay is classed as cell-based. The settings on record: TNF-α 0.5 ng/ml. As to the method: The effects of NAC on the expression of the TNF-α induced CD 54, Intercellular Adhesion Molecule (ICAM-1) by Human Umbilical Vein Endothelial Cells (HUVEC) was assessed as follows.
DL-Buthionine sulphoximine (BSO) was used to pretreat the cells. BSO is an inhibitor of glutathione synthesis and therefore reduces the glutathione content of the HUVEC rendering them more susceptible to oxidative stress and mimicking the conditions implicated in chronic wounds. NAC was used as a treatment to inhibit the expression of ICAM-1 by interfering with the TNF-α mediated intracellular signalling.
HUVEC were seeded to wells of 96 well plates (5000 cells per well in 100 μl Endothelial Growth Medium (EGM)). The plates were allowed to grow until the cells reached 90% confluence. The medium was decanted from each plate and the following treatments (all volumes were 200 μl, performed in quadruplicate wells) where then applied to the HUVEC. […]
ICAM-1 expression, stimulated by inflammatory mediators such as tumour necrosis factor, can be detected on the surface of cells (endothelial cells, monocytes, T&B cells, keratinocytes, chondrocytes and epithelial cells) using ELISA techniques, as follows: […]
8. Stop the reaction when colour develops by the addition of 1M H2 SO4 (100 μl per well) and read the absorbance at 450 nm using a Dynatech (RTM) plate reader.

Turning to `CC(=O)N[C@@H](CS)C(=O)O` [NAC, N-acetyl-3-mercaptoalanine], the “inhibition of MMP activity” value is listed as “approximately 10%” in assay [1] (0.44 mM NAC), “Approximately 70%” in assay [1] (4.4 mM NAC solution) and “substantially complete” in assay [1] (44 mM NAC solution). The “inhibition of MMP activity (concentration dependence)” value in assay [1] (NAC 0.44, 4.4, 44 mM, FIG. 2) is “clear concentration-dependent inhibition”. The “inhibition of ICAM-1 expression (concentration dependence)” value in assay [2] (BSO (50 μM) pretreated HUVEC, NAC 1.1, 3.3, 10 mM, FIG. 1) was “concentration-dependent inhibition”. Further, the “inhibition of ICAM-1 expression, all NAC concentrations” value in assay [2] (NAC 10, 3.3 and 1.1 mM, P<0.05, Students T-test, BSO pretreated HUVEC) is reported as “significant inhibition”.
